Measurements taken from patent publication US10314823B2, “Substituted 1,2-dihydro-3H-pyrrolo[1,2-c]imidazol-3-one antibacterial compounds” (IDORSIA PHARMACEUTICALS LTD, priority 2015, dated 2019).
Values after ≈ are worked out from the molar mass of the structure shown.

Key:
Experiment in all cases: Bacterial growth minimal inhibitory concentration (CLSI broth microdilution)
Assay type in all cases: cell-based
E. coli ATCC25922 = settings: quinolone-sensitive strain, cation-adjusted Mueller-Hinton Broth; for MIC: Escherichia coli, ATCC25922
Procedure, shortened: (§1)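 Following CLSI document M7-A7, minimal inhibitory concentrations in mg/L come from microdilution in cation-adjusted Mueller-Hinton broth, tested against quinolone-resistant K. pneumoniae A-651 and quinolone-sensitive E. coli ATCC25922 and P. aeruginosa ATCC27853.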

K. pneumoniae A-651 = settings: multiply resistant strain (in particular quinolone-resistant), cation-adjusted Mueller-Hinton Broth; for MIC: Klebsiella pneumoniae, A651
Procedure, shortened: as §1

P. aeruginosa ATCC27853 = settings: quinolone-sensitive strain, cation-adjusted Mueller-Hinton Broth; for MIC: Pseudomonas aeruginosa, ATCC27853
Procedure, shortened: as §1

Row | MIC (E. coli ATCC25922) | MIC (K. pneumoniae A-651) | MIC (P. aeruginosa ATCC27853) | MIC for E. coli ATCC25922 (E. coli ATCC25922) | MIC for K. Pneumoniae A-651 (K. pneumoniae A-651) | MIC for P. aeruginosa ATCC27853 (P. aeruginosa ATCC27853) | Structure (SMILES)
1 | 0.125 µg/mL (≈ 0.25 µM) | 0.25 µg/mL (≈ 0.499 µM) | 0.5 µg/mL (≈ 0.999 µM) |  |  |  | C[C@@](CCN1Cc2cc(C#CC#CC3CN(C4CCCCC4)C3)cn2C1=O)(C(=O)NO)S(C)(=O)=O [Example 70, (2R)-4-(6-((1-cyclohexylazetidin-3-yl)buta-1,3-diyn-1-yl)-3-oxo-1H-pyrrolo[1,2-c]imidazol-2(3H)-yl)-N-hydroxy-2-methyl-2-(methylsulfonyl)butanamide]
2 | 0.5 µg/mL (≈ 1.03 µM) | 0.25 µg/mL (≈ 0.514 µM) | 1 µg/mL (≈ 2.06 µM) |  |  |  | C[C@@](CCN1Cc2cc(C#CC#CC3CN(C4CCCC4)C3)cn2C1=O)(C(=O)NO)S(C)(=O)=O [Example 73, (2R)-4-(6-((1-cyclopentylazetidin-3-yl)buta-1,3-diyn-1-yl)-3-oxo-1H-pyrrolo[1,2-c]imidazol-2(3H)-yl)-N-hydroxy-2-methyl-2-(methylsulfonyl)butanamide]
3 | 0.25 µg/mL (≈ 0.497 µM) | 0.25 µg/mL (≈ 0.497 µM) | 1 µg/mL (≈ 1.99 µM) |  |  |  | C[C@@](CCN1Cc2cc(C#CC#CC3CN(C4CCOCC4)C3)cn2C1=O)(C(=O)NO)S(C)(=O)=O [Example 74, (2R)—N-hydroxy-2-methyl-2-(methylsulfonyl)-4-(3-oxo-6-((1-(tetrahydro-2H-pyran-4-yl)azetidin-3-yl)buta-1,3-diyn-1-yl)-1H-pyrrolo[1,2-c]imidazol-2(3H)-yl)butanamide]
4 | 0.063 µg/mL (≈ 0.128 µM) | 0.125 µg/mL (≈ 0.255 µM) | 2 µg/mL (≈ 4.08 µM) |  |  |  | C[C@@](CCN1Cc2cc(C#CC#CC3CN(C4CSC4)C3)cn2C1=O)(C(=O)NO)S(C)(=O)=O [Example 75, (2R)—N-hydroxy-2-methyl-2-(methylsulfonyl)-4-(3-oxo-6-((1-(thietan-3-yl)azetidin-3-yl)buta-1,3-diyn-1-yl)-1H-pyrrolo[1,2-c]imidazol-2(3H)-yl)butanamide]
5 | 2 µg/mL (≈ 4.34 µM) | 2 µg/mL (≈ 4.34 µM) | 4 µg/mL (≈ 8.69 µM) |  |  |  | CCC1(C#CC#Cc2cc3n(c2)C(=O)N(CC[C@](C)(C(=O)NO)S(C)(=O)=O)C3)CN(C)C1 [Example 79, (2R)-4-(6-((3-ethyl-1-methylazetidin-3-yl)buta-1,3-diyn-1-yl)-3-oxo-1H-pyrrolo[1,2-c]imidazol-2(3H)-yl)-N-hydroxy-2-methyl-2-(methylsulfonyl)butanamide]
6 | 0.5 µg/mL (≈ 1.15 µM) | 0.5 µg/mL (≈ 1.15 µM) | 0.5 µg/mL (≈ 1.15 µM) |  |  |  | [2H]C([2H])S(=O)(=O)[C@](C)(CCN1Cc2cc(C#CC#CC3CN(C)C3)cn2C1=O)C(=O)NO [Example 80, (2R)—N-hydroxy-2-methyl-2-((methyl-d2)sulfonyl)-4-(6-((1-methylazetidin-3-yl)buta-1,3-diyn-1-yl)-3-oxo-1H-pyrrolo[1,2-c]imidazol-2(3H)-yl)butanamide]
7 | 1 µg/mL (≈ 2.15 µM) | 2 µg/mL (≈ 4.3 µM) | 1 µg/mL (≈ 2.15 µM) |  |  |  | [2H]C([2H])([2H])S(=O)(=O)[C@](C)(CCN1Cc2cc(C#CC#CC3CN(CCO)C3)cn2C1=O)C(=O)NO [Example 81, (2R)—N-hydroxy-4-(6-((1-(2-hydroxyethyl)azetidin-3-yl)buta-1,3-diyn-1-yl)-3-oxo-1H-pyrrolo[1,2-c]imidazol-2(3H)-yl)-2-methyl-2-((methyl-d3)sulfonyl)butanamide]
8 | 0.5 µg/mL (≈ 0.995 µM) | 1 µg/mL (≈ 1.99 µM) | 2 µg/mL (≈ 3.98 µM) |  |  |  | CN1CC(C#Cc2ccc(-c3cc4n(c3)C(=O)N(CC[C@](C)(C(=O)NO)S(C)(=O)=O)C4)c(F)c2)C1 [Example 84, (2R)-4-(6-(2-fluoro-4-((1-methylazetidin-3-yl)ethynyl)phenyl)-3-oxo-1H-pyrrolo[1,2-c]imidazol-2(3H)-yl)-N-hydroxy-2-methyl-2-(methylsulfonyl)butanamide]
9 | 0.5 µg/mL (≈ 1.03 µM) | 1 µg/mL (≈ 2.06 µM) | 1 µg/mL (≈ 2.06 µM) |  |  |  | CN1CC(C#Cc2ccc(-c3cc4n(c3)C(=O)N(CC[C@](C)(C(=O)NO)S(C)(=O)=O)C4)cc2)C1 [Example 85, (2R)—N-hydroxy-2-methyl-4-(6-(4-((1-methylazetidin-3-yl)ethynyl)phenyl)-3-oxo-1H-pyrrolo[1,2-c]imidazol-2(3H)-yl)-2-(methylsulfonyl)butanamide]
10 | 4 µg/mL (≈ 7.54 µM) | > 8 µg/mL | 8 µg/mL (≈ 15.1 µM) |  |  |  | CN1CCC(C#Cc2ccc(-c3cc4n(c3)C(=O)N(CC[C@](C)(C(=O)NO)S(C)(=O)=O)C4)c(F)c2)CC1 [Example 87, (2R)-4-(6-(2-fluoro-4-((1-methylpiperidin-4-yl)ethynyl)phenyl)-3-oxo-1H-pyrrolo[1,2-c]imidazol-2(3H)-yl)-N-hydroxy-2-methyl-2-(methylsulfonyl)butanamide]
11 | 0.5 µg/mL (≈ 0.939 µM) | 2 µg/mL (≈ 3.76 µM) | 2 µg/mL (≈ 3.76 µM) |  |  |  | C[C@@](CCN1Cc2cc(-c3ccc(C#CC4CN(CCO)C4)cc3F)cn2C1=O)(C(=O)NO)S(C)(=O)=O [Example 88, (2R)-4-(6-(2-fluoro-4-((1-(2-hydroxyethyl)azetidin-3-yl)ethynyl)phenyl)-3-oxo-1H-pyrrolo[1,2-c]imidazol-2(3H)-yl)-N-hydroxy-2-methyl-2-(methylsulfonyl)butanamide]
12 | 1 µg/mL (≈ 2.05 µM) | 1 µg/mL (≈ 2.05 µM) | 2 µg/mL (≈ 4.09 µM) |  |  |  | C[C@@](CCN1Cc2cc(C#CC#CC3CCN(C4COC4)C3)cn2C1=O)(C(=O)NO)S(C)(=O)=O (stereo partly drawn) [Example 89, (2R)—N-hydroxy-2-methyl-2-(methylsulfonyl)-4-(6-((1-(oxetan-3-yl)pyrrolidin-3-yl)buta-1,3-diyn-1-yl)-3-oxo-1H-pyrrolo[1,2-c]imidazol-2(3H)-yl)butanamide]
13 |  |  |  | 0.5 µg/mL | 0.5 µg/mL | 1 µg/mL | C[C@@](CCN1Cc2cc(C#CC#CC3CN(C4CC(O)C4)C3)cn2C1=O)(C(=O)NO)S(C)(=O)=O (stereo partly drawn) [Example 90, (2R)—N-hydroxy-4-(6-((1-((1r,3r)-3-hydroxycyclobutyl)azetidin-3-yl)buta-1,3-diyn-1-yl)-3-oxo-1H-pyrrolo[1,2-c]imidazol-2(3H)-yl)-2-methyl-2-(methylsulfonyl)butanamide]
14 |  |  |  | 0.5 µg/mL | 0.5 µg/mL | 1 µg/mL | C[C@@](CCN1Cc2cc(C#CC#CC3CN([C@H]4C[C@@H](O)C4)C3)cn2C1=O)(C(=O)NO)S(C)(=O)=O [Example 91, (2R)—N-hydroxy-4-(6-((1-((1s,3s)-3-hydroxycyclobutyl)azetidin-3-yl)buta-1,3-diyn-1-yl)-3-oxo-1H-pyrrolo[1,2-c]imidazol-2(3H)-yl)-2-methyl-2-(methylsulfonyl)butanamide]
15 | 0.25 µg/mL (≈ 0.56 µM) | 0.25 µg/mL (≈ 0.56 µM) | 0.25 µg/mL (≈ 0.56 µM) |  |  |  | C[C@H]1[C@H](C#CC#Cc2cc3n(c2)C(=O)N(CC[C@](C)(C(=O)NO)S(C)(=O)=O)C3)CN1C [Example 92, (2R)-4-(6-(((2S,3R)-1,2-dimethylazetidin-3-yl)buta-1,3-diyn-1-yl)-3-oxo-1H-pyrrolo[1,2-c]imidazol-2(3H)-yl)-N-hydroxy-2-methyl-2-(methylsulfonyl)butanamide]
16 | 0.25 µg/mL (≈ 0.56 µM) | 0.5 µg/mL (≈ 1.12 µM) | 0.25 µg/mL (≈ 0.56 µM) |  |  |  | C[C@@H]1[C@@H](C#CC#Cc2cc3n(c2)C(=O)N(CC[C@](C)(C(=O)NO)S(C)(=O)=O)C3)CN1C [Example 93, (2R)-4-(6-(((2R,3S)-1,2-dimethylazetidin-3-yl)buta-1,3-diyn-1-yl)-3-oxo-1H-pyrrolo[1,2-c]imidazol-2(3H)-yl)-N-hydroxy-2-methyl-2-(methylsulfonyl)butanamide]
